Where two headings read alike, the source gives them in different places.
How the values were obtained:
SKMEL2 = assay: Cell viability assay; format: cell-based; details: Homo sapiens, SK-MEL-2, 24 h; SKMEL2 (Skin); read-out: AZD5991 24h GI50
Method: (§1) Cells were plated at 3000 cells/well in 384-well white plates in corresponding cell growth media. […] Caspase-3/7 activation was subsequently determined using a Caspase-Glo 3/7 Reagent (Promega) and viability was assayed using the CellTiter-Glo Reagent (Promega) as described in manufacturer’s instructions. Dose–response curves for caspase-3/7 activation and viability were plotted and analyzed (including EC50 and GI50 determination) using GraphPad Prism.

[1] = test system: Eμ-Myc lymphoma cells, control; assay: cells; details: Mus musculus, 24 h, read-out: apoptosis induction EC50 control
Description: The retroviral plasmids to express human Bcl-2 family members in murine Eμ-Myc lymphoma cells are MSCV-hMCL-1-GFP, MSCV-hBCL-2-GFP, MSCV-hBCL-XL-GFP, MSCV-hBFL-1/A1-GFP, and MSCV-hBCL-w-GFP. To produce viruses, constructs of interest were co-transfected into HEK293T cells with the plasmid encoding the packaging viruses (p-CL-AMPHO provided by Phillip Darcy from Peter MacCallum Cancer Center, Melbourne, Australia) using standard calcium phosphate transient transfection technique. The retroviruses were harvested, filtered and used to infect target cells following standard procedures.
Samples were then centrifuged, washed twice with PBS and analyzed by flow cytometry in a BD LSRFortessa. FACSDiva software was used for data collection and FlowJo software for data analysis.

Will2 = assay: Cell viability assay; format: cell-based; details: 24 h; Will2 (NHL); read-out: AZD5991 24h GI50
Method: as §1

KMS11 = assay: Cell viability assay; format: cell-based; details: Homo sapiens, KMS-11, 24 h; KMS11 (MM); read-out: AZD5991 24h GI50
Method: as §1

H358 = assay: Cell viability assay; format: cell-based; details: Homo sapiens, NCI-H358, 24 h; H358 (Lung); read-out: AZD5991 24h GI50
Method: as §1

Sudhl8 = assay: Cell viability assay; format: cell-based; details: Homo sapiens, SU-DHL-8, 24 h; Sudhl8 (NHL); read-out: AZD5991 24h GI50
Method: as §1

ZR751 = assay: Cell viability assay; format: cell-based; details: Homo sapiens, ZR-75-1, 24 h; ZR751 (Breast); read-out: AZD5991 24h GI50
Method: as §1

MV411 = assay: Caspase-3/7 activation assay; format: cell-based; details: Homo sapiens
Method: as §1

Sudhl5 = assay: Cell viability assay; format: cell-based; details: Homo sapiens, SU-DHL-5, 24 h; Sudhl5 (NHL); read-out: AZD5991 24h GI50
Method: as §1

SKBR3 = assay: Cell viability assay; format: cell-based; details: Homo sapiens, SK-BR-3, 24 h; SKBR3 (Breast); read-out: AZD5991 24h GI50
Method: as §1

MV4-11 tumors = assay: MV4-11 rat subcutaneous xenograft; format: in vivo
Method: Female C.B.-17 SCID mice and female nude rats were purchased from Charles River Laboratories. […]. All xenograft studies were conducted at our Association for the Assessment and Accreditation of Laboratory Animal Care accredited facility in Waltham, MA in accordance with ethical regulations described in the guidelines established by the internal Institutional Animal Care and Use Committee. […]. In mice, drugs were dosed intravenously in a volume of 5 mL kg^-1 except for venetoclax that was dosed orally in a volume of 10 mL kg^-1. […]. Ten million MV4-11 cells were injected subcutaneously in the right flank of rats in a volume of 0.1 mL. Tumor volumes (measured by caliper), animal body weight, and tumor condition were recorded twice weekly for the duration of the study. The tumor volume was calculated using the formula: length (mm) × width (mm)^2/0.52. For efficacy studies, growth inhibition from the start of treatment was assessed by comparison of the differences in tumor volume between control and treated groups. Statistical significance was evaluated using non-parametric, unpaired, two-tailed t-test. […] For pharmacokinetic analysis, plasma samples were precipitated and diluted with acetonitrile containing internal standard and analyzed by LC–MS/MS versus a calibration curve of known concentrations.

TMD8 = assay: Cell viability assay; format: cell-based; details: Homo sapiens, 24 h; TMD8 (NHL); read-out: AZD5991 24h GI50
Method: as §1

A2058 = assay: Cell viability assay; format: cell-based; details: Homo sapiens, 24 h; A2058 (Skin); read-out: AZD5991 24h GI50
Method: as §1

OVCAR3 = assay: Cell viability assay; format: cell-based; details: Homo sapiens, OVCAR-3, 24 h; OVCAR3 (Others); read-out: AZD5991 24h GI50
Method: as §1

HMCB = assay: Cell viability assay; format: cell-based; details: Homo sapiens, 24 h; HMCB (Skin); read-out: AZD5991 24h GI50
Method: as §1

Z-138 = assay: Cell viability assay; format: cell-based; details: Homo sapiens, 24 h; Z-138 (NHL); read-out: AZD5991 24h GI50
Method: as §1

NB4 = assay: Caspase-3/7 activation assay; format: cell-based; details: Homo sapiens, NB-4, 6 h
Method: as §1

MCF7 = assay: Cell viability assay; format: cell-based; details: Homo sapiens, 24 h; MCF7 (Breast); read-out: AZD5991 24h GI50
Method: as §1

[2] = Plasma protein binding in fetal calf serum; format: in vitro ADME; details: bovine, read-out: plasma protein binding, free
REC1 = assay: Cell viability assay; format: cell-based; details: Homo sapiens, 24 h; REC1 (NHL); read-out: AZD5991 24h GI50
Method: as §1

Sudhl6 = assay: Cell viability assay; format: cell-based; details: Homo sapiens, SU-DHL-6, 24 h; Sudhl6 (NHL); read-out: AZD5991 24h GI50
Method: as §1

RCPIWM1 = assay: Cell viability assay; format: cell-based; details: 24 h; RCPIWM1 (NHL); read-out: AZD5991 24h GI50
Method: as §1

H460 = assay: Cell viability assay; format: cell-based; details: Homo sapiens, NCI-H460, 24 h; H460 (Lung); read-out: AZD5991 24h GI50
Method: as §1

Pfeiffer = assay: Cell viability assay; format: cell-based; details: Homo sapiens, 24 h; Pfeiffer (NHL); read-out: AZD5991 24h GI50
Method: as §1

OV90 = assay: Cell viability assay; format: cell-based; details: Homo sapiens, OV-90, 24 h; OV90 (Others); read-out: AZD5991 24h GI50
Method: as §1

MM1S = assay: Cell viability assay; format: cell-based; details: Homo sapiens, MM1.S, 24 h; MM1S (MM); read-out: AZD5991 24h GI50
Method: as §1

**Q.** What does the source list for `Cc1c2c(nn1C)CSCc1cc(n(C)n1)CSc1cc(c3ccccc3c1)OCCCc1c(C(=O)O)n(C)c3c-2c(Cl)ccc13` (atropisomer, axis not shown; (Ra)) [(Ra)-7]?
**A.** GI50 (SKMEL2): 9310 nM; EC50 [1]: 1070 nM; GI50 (Will2): 43 nM; GI50 (KMS11): 540 nM; GI50 (H358): 4240 nM; GI50 (Sudhl8): 198 nM; GI50 (ZR751): 21200 nM; EC50 (MV411; MV4-11, 6 h, read-out: 6h caspase EC50, MV411, single agent): 56.3 nM; EC50 (MV411; MV4-11, 6 h, read-out: AZD5991 6h EC50, MV411 (AML), caspase 3/7 activation): 25 nM; EC50 (MV411; MV4-11, caspase activation, Mcl-1-dependent cell line, read-out: MV4-11, EC50): 24 nM; EC50 (MV411; MV4-11, mean of log transformed data, read-out: MV4-11 caspase pEC50 (converted)): 24 nM; GI50 (Sudhl5): 18 nM; GI50 (SKBR3): 118 nM; tolerability, body weight (MV4-11 tumors; 30 mg kg^−1 i.v.): no significant body weight loss; antitumor response (MV4-11 tumors; single i.v. dose 30 mg kg^−1): TR observed; GI50 (TMD8): 535 nM; GI50 (A2058): 765 nM; GI50 (OVCAR3): > 30000 nM; GI50 (HMCB): 3000 nM; GI50 (Z-138): 290 nM; EC50 (NB4; read-out: 6h caspase EC50, NB4, single agent): 201 nM; EC50 (NB4; read-out: AZD5991 6h EC50, NB4 (AML), caspase 3/7 activation): 347 nM; GI50 (MCF7): 1350 nM; fraction unbound [2]: 0.001; GI50 (REC1): 728 nM; GI50 (Sudhl6): 15 nM; GI50 (RCPIWM1): 20 nM; GI50 (H460): 26400 nM; GI50 (Pfeiffer): 3370 nM; GI50 (OV90): 22100 nM; GI50 (MM1S): 348 nM
